Source: ChEMBL document CHEMBL1275279, “Synthesis, biological assay in vitro and molecular docking studies of new imidazopyrazinone derivatives as potential dipeptidyl peptidase IV inhibitors” (Eur J Med Chem, 2010)

Target: Dipeptidyl peptidase 4 (Homo sapiens) (UniProt P27487)
Sequence (P27487 whole entry, looked up): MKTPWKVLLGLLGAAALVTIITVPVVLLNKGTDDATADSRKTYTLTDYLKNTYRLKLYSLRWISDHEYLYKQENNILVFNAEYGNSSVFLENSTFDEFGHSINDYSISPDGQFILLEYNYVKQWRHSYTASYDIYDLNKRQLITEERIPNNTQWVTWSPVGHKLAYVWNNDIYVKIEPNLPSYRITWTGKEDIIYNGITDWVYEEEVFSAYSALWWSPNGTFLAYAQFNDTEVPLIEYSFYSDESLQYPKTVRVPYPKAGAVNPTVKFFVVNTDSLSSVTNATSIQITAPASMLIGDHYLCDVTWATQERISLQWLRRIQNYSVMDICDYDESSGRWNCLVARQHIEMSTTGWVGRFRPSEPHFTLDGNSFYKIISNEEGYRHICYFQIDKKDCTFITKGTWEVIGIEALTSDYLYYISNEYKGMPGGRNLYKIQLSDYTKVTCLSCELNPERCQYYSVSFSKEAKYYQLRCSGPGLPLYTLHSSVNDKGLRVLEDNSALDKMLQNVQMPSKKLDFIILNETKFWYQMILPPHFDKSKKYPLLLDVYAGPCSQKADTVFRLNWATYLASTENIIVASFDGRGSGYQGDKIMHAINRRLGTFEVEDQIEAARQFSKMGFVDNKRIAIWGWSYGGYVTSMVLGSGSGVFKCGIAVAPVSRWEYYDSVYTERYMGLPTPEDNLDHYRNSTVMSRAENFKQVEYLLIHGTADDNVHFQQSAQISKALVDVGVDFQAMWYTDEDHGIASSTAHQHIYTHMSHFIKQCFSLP
Description: Inhibition of human seminal fluid DPP4

- IC50: 78 nM
Structure (SMILES): NC(=O)c1cccc(CN2CC3CN(C(=O)C[C@H](N)Cc4cc(F)c(F)cc4F)CCN3C2=O)c1 (stereo partly specified)
